Test results: PMC9481151, “Discovery of new symmetrical and asymmetrical nitrile-containing 1,4-dihydropyridine derivatives as dual kinases and P-glycoprotein inhibitors: synthesis, in vitro assays, and in silico studies” (Journal of Enzyme Inhibition and Medicinal Chemistry, 2022)

Assays:
CCRF-CEM = test: NCI single dose (10 µM) SRB screen; format: cell-based, human; settings: leukaemia, 48 h
HL-60(TB) = test: NCI single dose (10 µM) SRB screen; format: cell-based, human; settings: leukaemia, 48 h
K-562 = test: NCI single dose (10 µM) SRB screen; format: cell-based, human; settings: leukaemia, 48 h
MOLT-4 = test: NCI single dose (10 µM) SRB screen; format: cell-based, human; settings: leukaemia, 48 h
RPMI-8226 = test: NCI single dose (10 µM) SRB screen; format: cell-based, human; settings: leukaemia, 48 h
SR = test: NCI single dose (10 µM) SRB screen; format: cell-based, human; settings: leukaemia, 48 h
A549/ATCC = test: NCI single dose (10 µM) SRB screen; format: cell-based, human; settings: non-small cell lung cancer, 48 h
EKVX = test: NCI single dose (10 µM) SRB screen; format: cell-based, human; settings: non-small cell lung cancer, 48 h
HOP-62 = test: NCI single dose (10 µM) SRB screen; format: cell-based, human; settings: non-small cell lung cancer, 48 h
HOP-92 = test: NCI single dose (10 µM) SRB screen; format: cell-based, human; settings: non-small cell lung cancer, 48 h
NCI-H226 = test: NCI single dose (10 µM) SRB screen; format: cell-based, human; settings: non-small cell lung cancer, 48 h
NCI-H23 = test: NCI single dose (10 µM) SRB screen; format: cell-based, human; settings: non-small cell lung cancer, 48 h
NCI-H322M = test: NCI single dose (10 µM) SRB screen; format: cell-based; settings: non-small cell lung cancer, 48 h
NCI-H460 = test: NCI single dose (10 µM) SRB screen; format: cell-based, human; settings: non-small cell lung cancer, 48 h
NCI-H522 = test: NCI single dose (10 µM) SRB screen; format: cell-based, human; settings: non-small cell lung cancer, 48 h
COLO 205 = test: NCI single dose (10 µM) SRB screen; format: cell-based, human; settings: colon cancer, 48 h
HCC-2998 = test: NCI single dose (10 µM) SRB screen; format: cell-based, human; settings: colon cancer, 48 h
HCT-116 = test: NCI single dose (10 µM) SRB screen; format: cell-based, human; settings: colon cancer, 48 h
HCT-15 = test: NCI single dose (10 µM) SRB screen; format: cell-based, human; settings: colon cancer, 48 h
HT29 = test: NCI single dose (10 µM) SRB screen; format: cell-based, human; settings: colon cancer, 48 h
KM12 = test: NCI single dose (10 µM) SRB screen; format: cell-based, human; settings: colon cancer, 48 h
SW-620 = test: NCI single dose (10 µM) SRB screen; format: cell-based, human; settings: colon cancer, 48 h
SF-268 = test: NCI single dose (10 µM) SRB screen; format: cell-based, human; settings: CNS cancer, 48 h
SF-295 = test: NCI single dose (10 µM) SRB screen; format: cell-based, human; settings: CNS cancer, 48 h
SF-539 = test: NCI single dose (10 µM) SRB screen; format: cell-based, human; settings: CNS cancer, 48 h
SNB-19 = test: NCI single dose (10 µM) SRB screen; format: cell-based, human; settings: CNS cancer, 48 h
SNB-75 = test: NCI single dose (10 µM) SRB screen; format: cell-based, human; settings: CNS cancer, 48 h
U251 = test: NCI single dose (10 µM) SRB screen; format: cell-based, human; settings: CNS cancer, 48 h
LOX IMVI = test: NCI single dose (10 µM) SRB screen; format: cell-based, human; settings: melanoma, 48 h
MALME-3M = test: NCI single dose (10 µM) SRB screen; format: cell-based, human; settings: melanoma, 48 h
M14 = test: NCI single dose (10 µM) SRB screen; format: cell-based, human; settings: melanoma, 48 h
MDA-MB-435 = test: NCI single dose (10 µM) SRB screen; format: cell-based, human; settings: melanoma, 48 h
SK-MEL-2 = test: NCI single dose (10 µM) SRB screen; format: cell-based, human; settings: melanoma, 48 h
SK-MEL-28 = test: NCI single dose (10 µM) SRB screen; format: cell-based, human; settings: melanoma, 48 h
SK-MEL-5 = test: NCI single dose (10 µM) SRB screen; format: cell-based, human; settings: melanoma, 48 h
UACC-257 = test: NCI single dose (10 µM) SRB screen; format: cell-based, human; settings: melanoma, 48 h
UACC-62 = test: NCI single dose (10 µM) SRB screen; format: cell-based, human; settings: melanoma, 48 h
IGROV1 = test: NCI single dose (10 µM) SRB screen; format: cell-based, human; settings: ovarian cancer, 48 h
OVCAR-3 = test: NCI single dose (10 µM) SRB screen; format: cell-based, human; settings: ovarian cancer, 48 h
OVCAR-4 = test: NCI single dose (10 µM) SRB screen; format: cell-based, human; settings: ovarian cancer, 48 h
OVCAR-5 = test: NCI single dose (10 µM) SRB screen; format: cell-based, human; settings: ovarian cancer, 48 h
OVCAR-8 = test: NCI single dose (10 µM) SRB screen; format: cell-based, human; settings: ovarian cancer, 48 h
NCI/ADR-RES = test: NCI single dose (10 µM) SRB screen; format: cell-based, human; settings: ovarian cancer, 48 h
SK-OV-3 = test: NCI single dose (10 µM) SRB screen; format: cell-based, human; settings: ovarian cancer, 48 h
786-0 = test: NCI single dose (10 µM) SRB screen; format: cell-based, human; settings: renal cancer, 48 h
A498 = test: NCI single dose (10 µM) SRB screen; format: cell-based, human; settings: renal cancer, 48 h
ACHN = test: NCI single dose (10 µM) SRB screen; format: cell-based, human; settings: renal cancer, 48 h
CAKI-1 = test: NCI single dose (10 µM) SRB screen; format: cell-based, human; settings: renal cancer, 48 h
RXF 393 = test: NCI single dose (10 µM) SRB screen; format: cell-based, human; settings: renal cancer, 48 h
SN12C = test: NCI single dose (10 µM) SRB screen; format: cell-based, human; settings: renal cancer, 48 h
TK-10 = test: NCI single dose (10 µM) SRB screen; format: cell-based, human; settings: renal cancer, 48 h
UO-31 = test: NCI single dose (10 µM) SRB screen; format: cell-based, human; settings: renal cancer, 48 h
PC-3 = test: NCI single dose (10 µM) SRB screen; format: cell-based, human; settings: prostate cancer, 48 h
DU-145 = test: NCI single dose (10 µM) SRB screen; format: cell-based, human; settings: prostate cancer, 48 h
MCF7 = test: NCI single dose (10 µM) SRB screen; format: cell-based, human; settings: breast cancer, 48 h
MDA-MB-231 = test: NCI single dose (10 µM) SRB screen; format: cell-based, human; settings: breast cancer, 48 h
HS578T = test: NCI single dose (10 µM) SRB screen; format: cell-based, human; settings: breast cancer, 48 h
BT-549 = test: NCI single dose (10 µM) SRB screen; format: cell-based, human; settings: breast cancer, 48 h
T-47D = test: NCI single dose (10 µM) SRB screen; format: cell-based, human; settings: breast cancer, 48 h
MDA-MB-468 = test: NCI single dose (10 µM) SRB screen; format: cell-based, human; settings: breast cancer, 48 h
NCI 60 cancer cell lines = test: NCI single dose (10 µM) SRB screen, mean over panel; format: cell-based, human; settings: mean over 60 cell lines, 48 h
Staphylococcus aureus = test: Agar well diffusion method; settings: relative to ciprofloxacin
Bacillus subtilis = test: Agar well diffusion method; settings: relative to ciprofloxacin
Escherichia coli = test: Agar well diffusion method; settings: relative to ciprofloxacin
Pseudomonas aeruginosa = test: Agar well diffusion method; settings: relative to ciprofloxacin
Candida albicans = test: Agar well diffusion method; settings: relative to clotrimazole
Aspergillus flavus = test: Agar well diffusion method; settings: relative to clotrimazole

## CC1=C(C(=O)OCC(C)C)C(c2cccc(C#N)c2)C(C(=O)OCC(C)C)=C(C)N1 [Compound 1d, Diisobutyl 4-(3-cyanophenyl)-2,6-dimethyl-1,4-dihydropyridine-3,5-dicarboxylate]
CCRF-CEM
  GI% CCRF-CEM: 32%
HL-60(TB)
  GI% HL-60(TB): 30%
K-562
  GI% K-562: 44%
MOLT-4
  GI% MOLT-4: 57%
RPMI-8226
  GI% RPMI-8226: 35%
SR
  GI% SR: 52%
A549/ATCC
  GI% A549/ATCC: 25%
EKVX
  GI% EKVX: 27%
HOP-62
  GI% HOP-62: 12%
HOP-92
  GI% HOP-92: 37%
NCI-H226
  GI% NCI-H226: 25%
NCI-H23
  GI% NCI-H23: 14%
NCI-H322M
  GI% NCI-H322M: – (Only GI% ≥ 10 are shown)
NCI-H460
  GI% NCI-H460: 13%
NCI-H522
  GI% NCI-H522: 21%
COLO 205
  GI% COLO 205: – (Only GI% ≥ 10 are shown)
HCC-2998
  GI% HCC-2998: – (Only GI% ≥ 10 are shown)
HCT-116
  GI% HCT-116: 32%
HCT-15
  GI% HCT-15: 31%
HT29
  GI% HT29: 12%
KM12
  GI% KM12: 24%
SW-620
  GI% SW-620: – (Only GI% ≥ 10 are shown)
SF-268
  GI% SF-268: 25%
SF-295
  GI% SF-295: 32%
SF-539
  GI% SF-539: 12%
SNB-19
  GI% SNB-19: – (Only GI% ≥ 10 are shown)
SNB-75
  GI% SNB-75: 32%
U251
  GI% U251: 21%
LOX IMVI
  GI% LOX IMVI: 10%
MALME-3M
  GI% MALME-3M: – (Only GI% ≥ 10 are shown)
M14
  GI% M14: – (Only GI% ≥ 10 are shown)
MDA-MB-435
  GI% MDA-MB-435: – (Only GI% ≥ 10 are shown)
SK-MEL-2
  GI% SK-MEL-2: 14%
SK-MEL-28
  GI% SK-MEL-28: – (Only GI% ≥ 10 are shown)
SK-MEL-5
  GI% SK-MEL-5: 17%
UACC-257
  GI% UACC-257: 17%
UACC-62
  GI% UACC-62: 23%
IGROV1
  GI% IGROV1: – (Only GI% ≥ 10 are shown)
OVCAR-3
  GI% OVCAR-3: 10%
OVCAR-4
  GI% OVCAR-4: 16%
OVCAR-5
  GI% OVCAR-5: – (Only GI% ≥ 10 are shown)
OVCAR-8
  GI% OVCAR-8: 11%
NCI/ADR-RES
  GI% NCI/ADR-RES: 20%
SK-OV-3
  GI% SK-OV-3: – (Only GI% ≥ 10 are shown)
786-0
  GI% 786-0: 18%
A498
  GI% A498: 17%
ACHN
  GI% ACHN: 16%
CAKI-1
  GI% CAKI-1: 38%
RXF 393
  GI% RXF 393: 42%
SN12C
  GI% SN12C: 10%
TK-10
  GI% TK-10: – (Only GI% ≥ 10 are shown)
UO-31
  GI% UO-31: 20%
PC-3
  GI% PC-3: 57%
DU-145
  GI% DU-145: – (Only GI% ≥ 10 are shown)
MCF7
  GI% MCF7: 39%
MDA-MB-231
  GI% MDA-MB-231: 17%
HS578T
  GI% HS578T: 25%
BT-549
  GI% BT-549: – (Only GI% ≥ 10 are shown)
T-47D
  GI% T-47D: 54%
MDA-MB-468
  GI% MDA-MB-468: 30%
NCI 60 cancer cell lines
  Mean GI%: 19%
other
  melting point: 146 to 148 °C
Staphylococcus aureus
  % activity index, S. aureus: – (Values below 25 are of limited value and not shown as they refer either to inactive or non-diffusing compounds)
Bacillus subtilis
  % activity index, B. subtilis: – (Values below 25 are of limited value and not shown as they refer either to inactive or non-diffusing compounds)
Escherichia coli
  % activity index, E. coli: – (Values below 25 are of limited value and not shown as they refer either to inactive or non-diffusing compounds)
Pseudomonas aeruginosa
  % activity index, P. aeruginosa: – (Values below 25 are of limited value and not shown as they refer either to inactive or non-diffusing compounds)
Candida albicans
  % activity index, C. albicans: – (Values below 25 are of limited value and not shown as they refer either to inactive or non-diffusing compounds)
Aspergillus flavus
  % activity index, A. flavus: – (Values below 25 are of limited value and not shown as they refer either to inactive or non-diffusing compounds)
